In patent publication US20080262228A1, “Metabolites of 5-fluoro-8- quinoline and methods of preparation and uses thereof” (Wyeth, priority 2006, published 2008):
Where “and” joins values, the source holds several entries; their conditions need not be identical. Equal entries are not always repeated. Structures can show the parent of a compound that is named as a salt. Marks after values point to notes of the source that are not given here.

Assay: In vivo metabolism of [14C]COMPOUND I in Sprague-Dawley rats, single oral 5 mg/kg dose
Parameters: species or system rat
Conditions: 5 mg/kg oral
Procedure: Dose preparation, animal dosing, and specimen collection were performed at Wyeth Research, Collegeville, Pa. The vehicle contained 2% (w/v) polysorbate 80, NF and 0.5% (w/v) methylcellulose (4000 cps) in water. [^14C]COMPOUND I trisuccinate salt (36.6 mg) and non-labeled COMPOUND I trisuccinate salt (26.7 mg) were dissolved in 1 mL of ethanol and suspended in 35 mL of the vehicle with stirring. The target [^14C]COMPOUND I concentration was approximately 1 mg/mL as free base and 70 μCi/mL with a target specific activity of 70 μCi/mg. Three pre- and post-dose aliquots (100 μL) were taken for the determination of radiochemical purity, drug and radioactivity concentrations and specific activity (see below).
Male rats weighing from 323 to 354 g and female rats weighing from 270 to 317 g at the time of dosing were purchased from Charles River Laboratories (Wilmington, Mass.). Non-fasted rats were given a single 5 mg/kg (˜350 μCi/kg) dose of [^14C]COMPOUND I at a volume of 5.0 mL/kg via intragastric gavage. Three rats were dosed for each time point. Animals were provided Purina rat chow and water ad libitum, and were kept individually in metabolism cages.
Blood samples were collected at 1, 3, 6 and 24 hr from male rats and at 1 and 3 hr from female rats after dose administration by cardiac puncture into tubes containing EDTA as the anticoagulant and placing them on ice. Triplicate aliquots (50 μL) of whole blood were removed and plasma was immediately obtained from the remaining blood by centrifugation at 4° C. Whole brain samples were collected after saline perfusion at 1, 3, 6 and 24 hr post-dose from male rats and at 1 and 3 hr post-dose from female rats. Urine samples were collected on dry ice from male rats at intervals of 0-6 and 6-24 hr post-dose. Feces were collected from male rats at 0-24 hr post-dose at room temperature. The biological specimens and aliquots of the dose suspension were stored at approximately −70° C. until analysis.
Triplicate aliquots of diluted dose (20 μL), dose fractions (10 μL), and plasma (50 μL) and urine (100 μL) from individual rats were analyzed for radioactivity concentrations. Radioactivity determinations were made with a Tri-Carb Model 3100 TR liquid scintillation counter (LSC) (Perkin Elmer) using 5 mL of Ultima Gold as the scintillation fluid.
Brain and fecal samples from individual rats were weighed and homogenized in water at a volume-to-weight ratio of about 3:1 and 5:1, respectively, with a Polytron PT homogenizer at ice-cold temperature. Duplicate aliquots of blood (50 μL), brain homogenates (0.2 g) and fecal homogenates (0.2 g) were placed on Combusto-cones with Combusto-pads and allowed to dry overnight. Samples were combusted with a model 307 Tri-Carb Sample Oxidizer, equipped with an Oximate-80 Robotic Automatic Sampler (Perkin Elmer). The liberated ^14CO2 was trapped with Carbo-Sorb E carbon dioxide absorber, mixed with PermaFluor® E^+ liquid scintillation cocktail, and counted in a Tri-Carb Model 3100 TR/LL liquid scintillation counter (Perkin Elmer).
Plasma samples were pooled by equal volumes from three animals at each time point (1, 3, 6 and 24 hr for males; 1 and 3 hr for females). Aliquots of 2 mL of pooled plasma were mixed with 2 mL of acetonitrile, placed on ice for about 10 min, and then centrifuged at 4° C. The supernatant was transferred to a clean tube. The protein pellets were extracted two more times with 4 mL of acetonitrile. The supernatants from precipitation and extraction of each sample were pooled, mixed, and evaporated at 22° C. under nitrogen in a TurboVap LV evaporator (Caliper Life Sciences, Hopkinton, Mass.) to about 1.0 mL. The concentrated extract was centrifuged, the supernatant volume measured and the extraction efficiency was determined by analyzing duplicate 10 μL aliquots for radioactivity concentrations.

[1] = female rats, 1 hr, individual rats, 5 mg/kg
[2] = female rats, 1 hr, mean ± SD, 5 mg/kg
[3] = female rats, 3 hr, individual rats, 5 mg/kg
[4] = female rats, 3 hr, mean ± SD, 5 mg/kg
[5] = male rats, 1 hr, individual rats, 5 mg/kg
[6] = male rats, 1 hr, mean ± SD, 5 mg/kg
[7] = male rats, 3 hr, individual rats, 5 mg/kg
[8] = male rats, 3 hr, mean ± SD, 5 mg/kg
[9] = male rats, 6 hr, individual rats, 5 mg/kg
[10] = male rats, 6 hr, mean ± SD, 5 mg/kg
[11] = male rats, 24 hr, individual rats, 5 mg/kg
[12] = male rats, 24 hr, mean ± SD, 5 mg/kg

## COc1cc(N2CCN(C3CCN(c4ccc(F)c5cccnc45)CC3)CC2)c2ncccc2c1 [[^14C]COMPOUND I, [piperazine-^14C(U)]-5-fluoro-8-(4-(4-(6-methoxyquinolin-8-yl)piperazin-1-yl)piperidin-1-yl)quinoline trisuccinate]
[1]
  Concentration of Total Radioactivity in Plasma: 1274 ng equivalents/mL and 854 ng equivalents/mL and 383 ng equivalents/mL
  Concentration of Total Radioactivity in Whole Blood: 815 ng equivalents/mL and 549 ng equivalents/mL and 536 ng equivalents/mL
Female rats, 1 hr, individual, 5 mg/kg
  Brain Radioactivity Concentrations: 149 ng equivalents/g and 121 ng equivalents/g and 128 ng equivalents/g
Female rats, 1 hr, mean ± SD
  Concentration of Total Radioactivity in Whole Blood: 633 ± 157 ng equivalents/mL
[2]
  Brain Radioactivity Concentrations: 133 ng equivalents/g and 133 ± 15 ng equivalents/g
  Concentration of Total Radioactivity in Plasma: 837 ng equivalents/mL and 837 ± 446 ng equivalents/mL
[3]
  Concentration of Total Radioactivity in Plasma: 504 ng equivalents/mL and 298 ng equivalents/mL and 436 ng equivalents/mL
  Concentration of Total Radioactivity in Whole Blood: 326 ng equivalents/mL and 206 ng equivalents/mL and 287 ng equivalents/mL
Female rats, 3 hr, individual, 5 mg/kg
  Brain Radioactivity Concentrations: 54 ng equivalents/g and 30 ng equivalents/g and 61 ng equivalents/g
Female rats, 3 hr, mean ± SD
  Concentration of Total Radioactivity in Whole Blood: 273 ± 61.2 ng equivalents/mL
[4]
  Brain Radioactivity Concentrations: 49 ng equivalents/g and 49 ± 16 ng equivalents/g
  Concentration of Total Radioactivity in Plasma: 412 ng equivalents/mL and 412 ± 105 ng equivalents/mL
Male rats, 0-24 hr urine
  dose excreted in urine: 3.6%
[5]
  Concentration of Total Radioactivity in Plasma: 366 ng equivalents/mL and 295 ng equivalents/mL and 887 ng equivalents/mL
  Concentration of Total Radioactivity in Whole Blood: 228 ng equivalents/mL and 169 ng equivalents/mL and 251 ng equivalents/mL
Male rats, 1 hr, individual, 5 mg/kg
  Brain Radioactivity Concentrations: 48 ng equivalents/g and 42 ng equivalents/g and 63 ng equivalents/g
Male rats, 1 hr, mean ± SD
  Concentration of Total Radioactivity in Whole Blood: 216 ± 42.3^a ng equivalents/mL
[6]
  Brain Radioactivity Concentrations: 51 ng equivalents/g and 51 ± 11^c ng equivalents/g
  Concentration of Total Radioactivity in Plasma: 516 ng equivalents/mL and 516 ± 323 ng equivalents/mL
[7]
  Concentration of Total Radioactivity in Plasma: 172 ng equivalents/mL and 256 ng equivalents/mL and 144 ng equivalents/mL
  Concentration of Total Radioactivity in Whole Blood: 115 ng equivalents/mL and 166 ng equivalents/mL and 98.6 ng equivalents/mL
Male rats, 3 hr, individual, 5 mg/kg
  Brain Radioactivity Concentrations: 22 ng equivalents/g and 31 ng equivalents/g and 23 ng equivalents/g
Male rats, 3 hr, mean ± SD
  Concentration of Total Radioactivity in Whole Blood: 127 ± 35.1^a ng equivalents/mL
[8]
  Brain Radioactivity Concentrations: 25 ng equivalents/g and 25 ± 4.9 ng equivalents/g
  Concentration of Total Radioactivity in Plasma: 191 ng equivalents/mL and 191 ± 58.3^a ng equivalents/mL
[9]
  Concentration of Total Radioactivity in Plasma: 112 ng equivalents/mL and 114 ng equivalents/mL and 163 ng equivalents/mL
  Concentration of Total Radioactivity in Whole Blood: 77.2 ng equivalents/mL and 75.5 ng equivalents/mL and 118 ng equivalents/mL
Male rats, 6 hr, individual, 5 mg/kg
  Brain Radioactivity Concentrations: 15 ng equivalents/g and 13 ng equivalents/g and 19 ng equivalents/g
Male rats, 6 hr, mean ± SD
  Concentration of Total Radioactivity in Whole Blood: 90.2 ± 24.1 ng equivalents/mL
[10]
  Brain Radioactivity Concentrations: 16 ng equivalents/g and 16 ± 3.2 ng equivalents/g
  Concentration of Total Radioactivity in Plasma: 130 ng equivalents/mL and 130 ± 28.9 ng equivalents/mL
[11]
  Concentration of Total Radioactivity in Plasma: 23.3 ng equivalents/mL and 24.2 ng equivalents/mL and 26.7 ng equivalents/mL
  Concentration of Total Radioactivity in Whole Blood: 22.8 ng equivalents/mL and 26.2 ng equivalents/mL and 28.0 ng equivalents/mL
Male rats, 24 hr, individual, 5 mg/kg
  Brain Radioactivity Concentrations: 7.1 ng equivalents/g and 5.3 ng equivalents/g and 6.1 ng equivalents/g
Male rats, 24 hr, mean ± SD
  Concentration of Total Radioactivity in Whole Blood: 25.7 ± 2.64 ng equivalents/mL
[12]
  Brain Radioactivity Concentrations: 6.2 ng equivalents/g and 6.2 ± 0.9 ng equivalents/g
  Concentration of Total Radioactivity in Plasma: 24.7 ng equivalents/mL and 24.7 ± 1.76 ng equivalents/mL
Male rats, first 24 hr, average
  administered radioactivity recovered in feces: 81.9%

## Oc1cc(N2CCN(C3CCN(c4ccc(F)c5cccnc45)CC3)CC2)c2ncccc2c1 [Metabolite M21, 8-{4-[1-(5-fluoroquinolin-8-yl)piperidin-4-yl]piperazin-1-yl}quinolin-6-ol trihydrochloride]
Female rats, between 1 and 3 hr post-dose
  percent of total brain radioactivity: 11.3-13.6%
Male rats, between 1 and 6 hr post-dose
  percent of total brain radioactivity: 9.0-9.4%
Male rats, pooled 0-24 hr feces
  percent of total radioactivity in the fecal extract: 15.1%
rats, P, plasma, F, feces, B, brain
  Source: B, F
